Test results as given in US5610185A, “Method for the treatment of hyperproliferative epithelial skin diseases by topical application of hydroxylated aromatic protein cross-linking compounds” (The United States of America as represented by the …, priority 1995, dated 1997).

Tests used:
[1] = test system: SQCC-Y1 human squamous carcinoma cells; assay: Cornified envelope (cross-linked protein) assay, SQCC-Y1 cells; format: cell-based; details: for cross-linked protein production by MC derivatives: SQCC-Y1 cells, FIG. 11, preliminary; for potency in cross-linking: of 15 aromatic compounds, FIG. 12
[2] = test system: primary mouse keratinocytes; assay: Cornified envelope (cross-linked protein) assay, primary mouse keratinocytes; format: cell-based; details: 4° C. and 37° C., 48 hours
Description: FIGS. 3A and 3B. A: Time course for cornification of primary mouse keratinocytes in response to MC. Boxes represent […] Ca^2+, triangles represent 100 μM MC, 1.4 mM Ca^2+, and solid circles represent 1 mM MC, 1.4 mM Ca^2+. […] Cells were incubated in medium with 1.4 mM Ca^2+ and MC for 4 hours, then were incubated with MTT (0.5 mg/ml in medium) for a further 4 hours before determination of formazan production.
Primary mouse keratinocytes were isolated from BALB/c newborn mouse skin. Primary keratinocytes, the benign neoplastic keratinocyte cell lines 308 and SP-1 (Strickland et al, Cancer Res., 48, 165-169, 1988) and the mouse squamous cell carcinoma line 1-7 (Greenhalgh et al., Proc. Natl. Acad. Sci., 87, 643-647, 1990) were grown in Eagle's minimal essential medium with 8% fetal calf serum (FCS) (chelexed) and penicillin 20 iu/ml, streptomycin 20 ug/ml (P/S). Unless otherwise indicated, the Ca^2+ concentration in medium was adjusted to 0.05 mM (Hennings et al., Cells, 19, 245-254, 1980). A431 human epidermoid carcinoma cells were obtained from ATCC, Rockville, Md., and were routinely passaged in DMEM with 10% FCS, P/S, glutamine (2 mM) and pyruvate (1 mM). SQCC-Y1 human squamous carcinoma cells and non-tumorigenic HPV 18 and SV 40 infected human keratinocytes were kindly donated by Dr. James Rheinwald of Harvard University, Boston, Mass. and Dr. Richard Schlegel of Georgetown University, Washington D.C. respectively. Human cells were cultured in DMEM/Ham's F12 1:1, 10% FCS, P/S and epidermal growth factor 10 ng/ml.
Primary mouse keratinocytes were incubated with MC for 0, 0.5, 1, 4 and 48 hours and were processed as follows.
(§1) The assay measures insoluble cross-linked protein envelopes as described (Hough-Monroe et al. Analytical biochem., 199, 25-28, 1991), with modifications as follows. Cornified envelopes were prepared by scraping monolayers into 2% sodium dodecylsulphate (SDS), 20 mM dithiothreitol (DTT) in phosphate buffered saline (PBS). Unattached cells were pelleted from medium and were resuspended in SDS/DTT and pooled with attached cells. Samples were boiled for 10 mins. Cornified envelope samples were examined under the microscope using phase contrast optics or were applied to an RC60 membrane (Schleicher and Schuell, Keene, N.H.) on a 96-well dot-blot apparatus attached to a vacuum. Samples were washed three times with SDS/DTT and the resultant protein spots on RC60 membrane were fixed and stained as described. Sports were excised and eluted with 1% NH3 OH concentrated solution, 66% methanol (200 ul) overnight. Absorbance of eluate was measured on a Titertek plate reader at 600 nm.
Cells were seeded at low density and were treated with MC for 3 days. Cells were then counted and increase in cell number was compared to untreated controls, or cells were processed for cross-linked protein.
Inhibitors were added 30 mins before MC or stsp (FIG. 6). Cross-linked protein was measured by the cornified envelope assay, described in Example 2.

transglutaminase = details: Dlugosz and Yuspa, Cancer Res., 51, 4677-4684, 1991; cited from earlier work
308 and SQCC-Y1 cells = assay: Cross-linked protein envelopes by tyrosine kinase inhibitors (Table II); format: cell-based; details: concentrations within the range for inhibition of tyrosine kinases
Description: as §1
A range of tyrosine kinase inhibitors was tested for ability to produce cross-linked protein envelopes in 308 and SQCC-Y1 cells. All inhibitors were obtained commercially from LC Laboratories, Woburn, Mass. Concentrations used were within the range for inhibition of tyrosine kinases.

## O=C(CCc1ccc(O)c(O)c1)OCCc1ccccc1 [67H-69-A, 3-(3,4-Dihydroxyphenyl) propanoic aid β-phenylethyl ester]
[1]
  cross-linked protein production by MC derivatives: active
  potency in cross-linking: most potent
[1]; listed as 67H-69A
  cross-linked protein production by MC derivatives: clearly exhibit protein cross-linking activity

## O=C(C=Cc1cc(O)c(O)cc1O)OCCc1ccccc1 [67H-98-A, 2,4,5-Trihydroxycinnamic acid β-phenylethyl ester]
[1]
  cross-linked protein production by MC derivatives: active
  potency in cross-linking: most potent
[1]; listed as 67H-98A
  cross-linked protein production by MC derivatives: clearly exhibit protein cross-linking activity

## COC(=O)c1cc2ccc(O)c(O)c2cn1.Cl [67F-36-A, 7,8-Dihydroxyisoquinoline-3-carboxylic acid methyl ester hydrochloride]
[1]
  cross-linked protein production by MC derivatives: inactive

## O=C(C=Cc1cc(O)ccc1O)OCCc1ccccc1 [67H-124-A, 2.5-dihydroxycinnamic acid β-phenylethyl ester]
[1]
  cross-linked protein production by MC derivatives: clearly exhibit protein cross-linking activity
  potency in cross-linking: most potent

## COC(=O)c1ccc2c(O)c(O)ccc2c1 [67G-146-A, 5,6-Dihydroxy-2-naphthoic acid methyl ester]
[1]
  cross-linked protein production by MC derivatives: active
  potency in cross-linking: most potent
[1]; listed as 67G-146A
  cross-linked protein production by MC derivatives: clearly exhibit protein cross-linking activity

## CN[C@@H]1C[C@H]2O[C@@](C)([C@@H]1OC)n1c3ccccc3c3c4c(c5c6ccccc6n2c5c31)C(=O)NC4 [staurosporine, reference compound]
[2]
  cross-linked protein at 4° C. and 37° C.: temperature dependent
transglutaminase
  transglutaminase activity (literature): increases TGase activity

## COC1C=CC=C(C)C(=O)NC2=CC(=O)C=C(C2=O)C(OC)C(C)CC(OC)C(OC)C(C)C=C(C)C1OC(N)=O (centres unmarked) [herbimycin A]
308 and SQCC-Y1 cells
  ability to induce cross-linking: unable to induce cross-linking

## O=C(/C=C/c1ccc(O)c(O)c1)OCCc1ccccc1 [67H-42-A, Caffeic acid β-phenylethyl ester]
[1]
  cross-linked protein production by MC derivatives: inactive

## O=C(O)c1cc(N(Cc2ccccc2O)Cc2cc(O)ccc2O)ccc1O [lavendustin A]
308 and SQCC-Y1 cells
  ability to induce cross-linking: unable to induce cross-linking
